PubChem BioAssay (NCI)
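1) Cells in 96-well plates. 2) Compound, 48 h, 5 concentrations. 3) Linear interpolation between surrounding doses. 4) Unreached endpoint = highest concentration. Abbreviation: GI50, concentration required for 50% inhibition of growth. TGI: concentration producing complete growth inhibition.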

Legend:
Assay in all cases: NCI anticancer screen, dose series, 48 h
[1] = tested on: SK-OV-3 ovarian
[2] = tested on: OVCAR-5 ovarian
[3] = tested on: ACHN renal
[4] = tested on: SK-MEL-5 melanoma
[5] = tested on: NCI/ADR-RES ovarian
[6] = tested on: UACC-62 melanoma
[7] = tested on: LOX IMVI melanoma
[8] = tested on: OVCAR-3 ovarian
[9] = tested on: SK-MEL-28 melanoma
[10] = tested on: CAKI-1 renal
[11] = tested on: SF-539 CNS
[12] = tested on: TK-10 renal
[13] = tested on: HL-60(TB) leukemia
[14] = tested on: EKVX NSCLC
[15] = tested on: SW-620 colon
[16] = tested on: OVCAR-8 ovarian
[17] = tested on: HCT-15 colon
[18] = tested on: OVCAR-4 ovarian
[19] = tested on: RPMI-8226 leukemia
[20] = tested on: HT29 colon
[21] = tested on: NCI-H460 lung
[22] = tested on: 786-0 renal
[23] = tested on: NCI-H226 lung
[24] = tested on: SNB-19 CNS
[25] = tested on: MOLT-4 leukemia
[26] = tested on: HS 578T breast
[27] = tested on: MCF7 breast
[28] = tested on: BT-549 breast
[29] = tested on: SF-268 CNS
[30] = tested on: K-562 leukemia
[31] = tested on: HCC-2998 colon
[32] = tested on: PC-3 prostate
[33] = tested on: KM12 colon
[34] = tested on: SNB-75 CNS
[35] = tested on: M14 melanoma
[36] = tested on: HOP-92 NSCLC
[37] = tested on: SR leukemia
[38] = tested on: U251 CNS
[39] = tested on: UO-31 renal
[40] = tested on: CCRF-CEM leukemia
[41] = tested on: SN12C renal
[42] = tested on: IGROV1 ovarian
[43] = tested on: A498 renal
[44] = tested on: NCI-H23 lung
[45] = tested on: A549 NSCLC
[46] = tested on: SK-MEL-2 melanoma
[47] = tested on: DU-145 prostate
[48] = tested on: HCT-116 colon
[49] = tested on: MDA-MB-435
[50] = tested on: COLO 205 colon
[51] = tested on: NCI-H522 lung
[52] = tested on: MALME-3M melanoma
[53] = tested on: T-47D breast
[54] = tested on: UACC-257 melanoma
[55] = tested on: HOP-62 NSCLC
[56] = tested on: RXF 393 renal
[57] = tested on: MDA-MB-231 breast
[58] = tested on: SF-295 CNS

`Cc1cc2c(cc1C)[n+](Cc1ccc3ccccc3c1)cn2Cc1ccc2ccccc2c1` gave a GI50 [1] of 1.5 µM, a TGI [1] of 2.9 µM and a GI50 [2] of 1.13 µM. For the same molecule, the TGI [2] was 2.43 µM, the GI50 [3] was 1.65 µM and the TGI [3] was 3.08 µM. For the same molecule, the GI50 [4] was 1.05 µM, the TGI [4] was 2.23 µM and the GI50 [5] was 6.6 µM. For the same molecule, the TGI [5] was 64.4 µM, the GI50 [6] was 0.459 µM and the TGI [6] was 1.79 µM.
`CN1C2=C(CC3=C1CC(C)(C)CC3=O)C(=O)CC(C)(C)C2` was tested, and the TGI [7] was > 100 µM, the TGI [8] was > 100 µM and the TGI [9] was > 100 µM. The TGI [10] was > 100 µM, the TGI [11] was > 100 µM and the TGI [12] was > 100 µM. The TGI [13] was > 100 µM, the TGI [14] was > 100 µM and the TGI [15] was > 100 µM. The TGI [16] was > 100 µM, the TGI [1] was > 100 µM and the TGI [17] was > 100 µM. For the same molecule, the TGI [18] was > 100 µM, the TGI [2] was > 100 µM and the TGI [19] was > 100 µM. The TGI [20] was > 100 µM, the TGI [21] was > 100 µM and the TGI [22] was > 100 µM. The TGI [23] was > 100 µM, the TGI [24] was > 100 µM and the TGI [3] was > 100 µM. The TGI [25] was > 100 µM, the TGI [26] was > 100 µM and the TGI [27] was > 100 µM. The TGI [4] was > 100 µM, the TGI [5] was > 100 µM and the TGI [28] was > 100 µM. For the same molecule, the TGI [29] was > 100 µM, the TGI [30] was > 100 µM and the TGI [31] was > 100 µM. The TGI [32] was > 100 µM, the TGI [33] was > 100 µM and the TGI [34] was > 100 µM. The TGI [35] was > 100 µM, the TGI [36] was > 100 µM and the TGI [37] was > 100 µM. The TGI [38] was > 100 µM, the TGI [39] was > 100 µM and the TGI [40] was > 100 µM. For the same molecule, the TGI [41] was > 100 µM, the TGI [42] was > 100 µM and the TGI [6] was > 100 µM. For the same molecule, the TGI [43] was > 100 µM, the TGI [44] was > 100 µM and the TGI [45] was > 100 µM.
`COc1ccc2[nH]cc(-c3ccc(-c4c[nH]c5ccc(OC)cc45)s3)c2c1` showed a GI50 [46] of 18.1 µM, a TGI [46] of 51 µM and a GI50 [47] of 4.87 µM. The TGI [47] was 18.4 µM, the GI50 [48] was 3.62 µM and the TGI [48] was 11.7 µM. The GI50 [49] was 8.32 µM, the TGI [49] was > 41.4 µM and the GI50 [7] was 2.2 µM. The TGI [7] was 5 µM, the GI50 [8] was 10.7 µM and the TGI [8] was 27.5 µM. The GI50 [9] was 12.6 µM, the TGI [9] was > 50.2 µM and the GI50 [10] was 5.54 µM. It also gave a TGI [10] of 19 µM, a GI50 [11] of 3.41 µM and a TGI [11] of 10.7 µM. The GI50 [12] was 6.29 µM, the TGI [12] was 21.3 µM and the GI50 [13] was 1.59 µM. It also gave a TGI [13] of 6.27 µM, a GI50 [14] of 8.33 µM and a TGI [14] of 26.9 µM. The GI50 [15] was 2.94 µM, the TGI [15] was 8.15 µM and the GI50 [16] was 5.86 µM. The TGI [16] was > 49.9 µM, the GI50 [50] was 4.68 µM and the TGI [50] was 11.5 µM. For the same molecule, the GI50 [51] was 1.56 µM, the TGI [51] was 4.46 µM and the GI50 [1] was 14.7 µM. For the same molecule, the TGI [1] was 39.8 µM, the GI50 [52] was 9.13 µM and the TGI [52] was 22.4 µM. It also gave a GI50 [53] of 11.1 µM, a TGI [53] of 41.5 µM and a GI50 [17] of 2.73 µM. The TGI [17] was 8.72 µM, the GI50 [54] was 11.4 µM and the TGI [54] was > 46.5 µM. It also gave a GI50 [18] of 6.82 µM, a TGI [18] of 23.7 µM and a GI50 [2] of 6.43 µM. For the same molecule, the TGI [2] was 18.7 µM, the GI50 [19] was 2.83 µM and the TGI [19] was 21 µM. The GI50 [20] was 2.06 µM, the TGI [20] was 4.51 µM and the GI50 [21] was 2.88 µM. It also gave a TGI [21] of 9.32 µM, a GI50 [22] of 2.36 µM and a TGI [22] of 7.64 µM. The GI50 [55] was 4.67 µM, the TGI [55] was 10.5 µM and the GI50 [56] was 3.51 µM. The TGI [56] was 13.6 µM, the GI50 [23] was 8.95 µM and the TGI [23] was > 42.9 µM. The GI50 [24] was 10.1 µM, the TGI [24] was 34.6 µM and the GI50 [3] was 4.14 µM. It also gave a TGI [3] of 15.9 µM, a GI50 [57] of 2.88 µM and a TGI [57] of 8.55 µM. It also gave a GI50 [25] of 1.16 µM, a TGI [25] of 6.95 µM and a GI50 [26] of 8.99 µM. The TGI [26] was 44.6 µM, the GI50 [27] was 4.72 µM and the TGI [27] was 27 µM. The GI50 [4] was 5.05 µM, the TGI [4] was 17.6 µM and the GI50 [5] was 3.78 µM. The TGI [5] was 19.5 µM, the GI50 [28] was 7.44 µM and the TGI [28] was 20.9 µM. The GI50 [58] was 2.8 µM, the TGI [58] was 8.47 µM and the GI50 [29] was 8.11 µM. It also gave a TGI [29] of 31.7 µM, a GI50 [30] of 2.54 µM and a TGI [30] of 7.3 µM. The GI50 [31] was 2.4 µM, the TGI [31] was 5.13 µM and the GI50 [32] was 3.08 µM. For the same molecule, the TGI [32] was 9.77 µM, the GI50 [33] was 2.37 µM and the TGI [33] was 6.67 µM. It also gave a GI50 [34] of 7.12 µM, a TGI [34] of 19.5 µM and a GI50 [35] of 6.36 µM. The TGI [35] was 18.4 µM, the GI50 [36] was 4.64 µM and the TGI [36] was 19.5 µM. It also gave a GI50 [38] of 3.68 µM, a TGI [38] of 12.6 µM and a GI50 [39] of 2.9 µM. It also gave a TGI [39] of 13.5 µM, a GI50 [40] of 0.345 µM and a TGI [40] of 13.6 µM. The GI50 [41] was 11.1 µM, the TGI [41] was 33.6 µM and the GI50 [42] was 8.72 µM. The TGI [42] was 51 µM, the GI50 [6] was 13.3 µM and the TGI [6] was 30.8 µM. For the same molecule, the GI50 [43] was 3.58 µM, the TGI [43] was 14.3 µM and the GI50 [44] was 6.36 µM. The TGI [44] was 26.2 µM, the GI50 [45] was 3.94 µM and the TGI [45] was 21.9 µM.
